From patent US8153678B2, “Process for preparing A 3-pyrrole substituted 2-indolinone malate salt” (Medichem, S.A., priority 2008, dated 2012)

Experiment: solubility of sunitinib base (applicants' observation)
Assay type: physicochemical
Conditions: qualitative; dissolution in solvents for salt preparation
Source text: In this regard, the low solubility of sunitinib base requires large amounts of solvents or mixture of solvents and/or the use of particular harsh conditions aimed to increase the solubility of sunitinib base and/or reduce long reaction times, which represents a significant drawback, especially for industrial scale-up. Further, solid sunitinib base is difficult to handle since it is a very fine powder which is difficult to filter and isolate.

In the case of `CCN(CC)CCNC(=O)c1c(C)[nH]c(/C=C2\C(=O)Nc3ccc(F)cc32)c1C` [sunitinib base, N-[2-(diethylamino)ethyl]-5-[(Z)-(5-fluoro-1,2-dihydro-2-oxo-3H-indol-3-yliden)methyl]-2,4-dimethyl-1H-pyrrole-3-carboxamide], the solubility profile was “low solubility profile”.
